Conditions in all cases: stereoisomer not certain
Series [1] in a line: RP, Phenomenex Kinetex C18, 150 × 2.1 mm, 1.7 µm, 30 °C, 0.3 mL/min, estimated dead time 1.1 min; A: water + 0.1% formic acid, pH 3; B: acetonitrile + 0.1% formic acid, pH 3; gradient (min/%B) 0/2 14/100 17/100 17.1/2 25/2.
A short description of series [2]: HILIC, Merck SeQuant ZIC-pHILIC, 150 × 2.1 mm, 5 µm, 40 °C, 0.3 mL/min, estimated dead time 1.1 min; A: acetonitrile; B: water + 2.8 mM ammonium formate, pH 9; gradient (min/%B) 0/5 1/5 10/51 13/51 13.1/5 20/5.
The nature of series [3]: RP, Phenomenex Kinetex C18, 150 × 2.1 mm, 1.7 µm, 30 °C, 0.3 mL/min, estimated dead time 1.1 min; A: water + 0.1% formic acid, pH 3; B: acetonitrile + 0.1% formic acid, pH 3; gradient (min/%B) 0/2 14/100 17/100 17.1/2 25/2. This is another data set of the same source.
Series [4] in a line: HILIC, Waters ACQUITY UPLC BEH Amide, 150 × 2.1 mm, 1.7 µm, 40 °C, 0.5 mL/min, estimated dead time 0.66 min; A: 5% water + 95% acetonitrile; B: 70% water + 30% acetonitrile + 10 mM ammonium formate, pH 6.5; gradient (min/%B) 0/0 2/0 20/70 23/70 24/0 31/0.

Turning to `O=CCc1ccccc1` [PHENYLACETALDEHYDE], the LC retention time in series [1] is 9.47 min.
With `CC12CCC3c4ccc(O)cc4CCC3C1CCC2O` (stereo not drawn) [ESTRADIOL-17ALPHA], the LC retention time in series [1] was 9.34 min.
With `O=C([O-])Cc1c[nH]c2ccccc12` [INDOLE-3-ACETATE], the LC retention time in series [1] was 6.54 min.
On the same count and under the same terms, the figure for `CCCCCCCCCCCCCC(=O)OCC(O)CO` (centres undefined) [GLYCEROL-MYRISTATE] is 13.3 min; for `O=C1CCC(C(=O)O)N1` (centres undefined) [PYROGLUTAMATE] it is 1.71 min.
As for `Nc1ccn(C2OC(CO)C(O)C2O)c(=O)n1` (centres undefined) [CYTIDINE], the results for the LC retention time in series [2], in series [3] and in series [4] were 7.29 min, 1.39 min and 6.3 min, respectively.
For `O=C(O)C(O)Cc1ccc(O)cc1` (centres undefined) [HYDROXYPHENYLLACTATE], in that order: 6.83 min, 3.97 min and 1.4 min.
Take `NC(=O)C1CCCN1C(=O)C(Cc1cnc[nH]1)NC(=O)C1CCC(=O)N1` (centres undefined) [THYROTROPIN RELEASING HORMONE]: the results for the LC retention time in series [2], in series [3] and in series [4] were 6.53 min, 2.14 min and 8.34 min, respectively.
For `CCCCCCCCCC(=O)OCC(COP(=O)([O-])OCC[N+](C)(C)C)OC(=O)CCCCCCCCC` (centres undefined) [DIDECANOYL-GLYCEROPHOSPHOCHOLINE], in that order: 1.65 min, 12.8 min and 5.15 min.
`CCOC(=O)Cc1c[nH]c2ccccc12` [ETHYL 3-INDOLEACETATE]: the LC retention time in series [1] is 9.17 min.
The same measure, in the same setting: the figure for `COC(=O)Cc1c[nH]c2ccccc12` [INDOLE-3-METHYL ACETATE] is 8.33 min.
As for `CSCCC(N)C(=O)O` (centres undefined) [METHIONINE], the LC retention time was 7.53 min in series [2], 1.43 min in series [3] and 8.53 min in series [4].
As for `Nc1ncnc2c1ncn2C1OC(CO)C2OP(=O)(O)OC21` (centres undefined) [ADENOSINE 2',3'-CYCLIC PHOSPHATE], the figures for the LC retention time in series [2], in series [3] and in series [4] were 6.94 min, 1.73 min and 6.69 min, respectively.
In the same order, the values of `Nc1ccccc1O` [2-AMINOPHENOL] are 7.38 min, 1.52 min and 0.87 min.
`Nc1nc2nccnc2c(=O)[nH]1` [PTERIN]: the LC retention time in series [2] was 6.57 min; in series [3], 2.05 min; in series [4], 4.43 min.
For `Cc1ncc(CO)c(C=O)c1O` [PYRIDOXAL], in that order: 2.6 min, 1.4 min and 1.81 min.
On to `O=c1[nH]c(=O)c2[nH]c(=O)[nH]c2[nH]1` [URATE], for which the LC retention time is 8.13 min in series [2], 1.52 min in series [3] and 2.25 min in series [4].
For `O=C([O-])CCc1ccccc1O` [3-(2-HYDROXYPHENYL)PROPANOATE], in that order: 2.12 min, 6.02 min and 1.02 min.
For `CSCCC(O)C(=O)O` (centres undefined) [2-HYDROXY-4-(METHYLTHIO)BUTANOATE], in that order: 4.59 min, 3.82 min and 1.29 min.
For `O=C([O-])CCCCC(=O)[O-]` [ADIPATE], the results for the LC retention time in series [2], in series [3] and in series [4] were 8.71 min, 3.73 min and 5.26 min, respectively.
Take `CC(=O)OCC(=O)C1CCC2C3CCC4=CC(=O)CCC4(C)C3CCC12C` (centres undefined) [DEOXYCORTICOSTERONE ACETATE]: the LC retention time in series [1] is 11 min.
Regarding `CC(CCC(=O)O)C(=O)O` (centres undefined) [2-METHYLGLUTARATE], the values for the LC retention time in series [2], in series [3] and in series [4] were 7.37 min, 3.85 min and 5.2 min, respectively.
In the same order, the values of `CC(=O)NCC(=O)O` [N-ACETYLGLYCINE] are 7.17 min, 1.41 min and 5.48 min.
For the compound `O=C(O)CCCCCCC(=O)O` [SUBERATE], the results for the LC retention time in series [2], in series [3] and in series [4] were 5.2 min, 5.34 min and 4.7 min, respectively.
In the same order, the values of `CCCC(N)C(=O)O` (centres undefined) [NORVALINE] are 7.52 min, 1.33 min and 8.68 min.
On to `CC(C)=CCCC(C)C1CCC2C3CC=C4CC(O)CCC4(C)C3CCC12C` (centres undefined) [DESMOSTEROL], for which the LC retention time in series [1] is 15.4 min.
In the case of `CCCCC(N)C(=O)O` (centres undefined) [NORLEUCINE], the LC retention time is 7.04 min in series [2], 2.19 min in series [3] and 7.75 min in series [4].
For `CC(=O)NC(CC(=O)O)C(=O)O` (centres undefined) [N-ACETYLASPARTATE], in that order: 8.84 min, 1.45 min and 3.48 min.
On to `CC(C)CC(N)C(=O)O` (centres undefined) [LEUCINE], for which the LC retention time in series [2] is 7.02 min; in series [3], 2.05 min; in series [4], 7.96 min.
On to `NC(CCOC(=O)CCC(=O)O)C(=O)O` (centres undefined) [O-SUCCINYL-HOMOSERINE], for which the LC retention time in series [2] is 8.3 min; in series [3] it was 1.45 min; in series [4] it was 11.8 min.
For `CCCCCCCCCCCCCC(=O)O` [MYRISTATE], the LC retention time in series [1] was 11.6 min.
Regarding `O=C(O)Cc1cc(O)ccc1O` [HOMOGENTISATE], the figures for the LC retention time in series [2], in series [3] and in series [4] were 6.88 min, 3.31 min and 1.27 min, respectively.
As to `CCCCCCCCCCCCCCCC(=O)O` [PALMITATE], the LC retention time in series [1] is 11.8 min.
Consider `O=Cc1ccc(O)cc1` [4-HYDROXYBENZALDEHYDE], for which the values for the LC retention time in series [2], in series [3] and in series [4] were 1.43 min, 5.11 min and 2.67 min, respectively.
For `CC(O)(CCO)CC(=O)[O-]` (centres undefined) [MEVALONATE], in that order: 6.07 min, 1.99 min and 3.94 min.
Turning to `Nc1cc(C(=O)O)ccc1[O-]` [3-AMINO-4-HYDROXYBENZOATE], the results for the LC retention time in series [2], in series [3] and in series [4] were 7.39 min, 1.52 min and 1.84 min, respectively.
For `c1ncc2[nH]cnc2n1` [PURINE], the LC retention time in series [2] was 3.4 min; in series [3], 1.92 min; in series [4], 1.89 min.
In the same order, the values of `O=C(O)C=Cc1cnc[nH]1` [UROCANATE] are 7.08 min, 1.43 min and 4.08 min.
For `NC(=O)NCCC(=O)O` [UREIDOPROPIONATE], in that order: 7.98 min, 1.4 min and 5.27 min.
Take `CC(CC(=O)O)CC(=O)O` [METHYGLUTARATE]: the values for the LC retention time in series [2], in series [3] and in series [4] were 7.27 min, 3.85 min and 1.27 min, respectively.
Consider `COc1cc(CC(=O)O)ccc1O` [HOMOVANILLATE], for which the LC retention time is 4.78 min in series [2], 4.81 min in series [3] and 1.59 min in series [4].
In the case of `O=C([O-])c1cccnc1` [NICOTINATE], the results for the LC retention time in series [2], in series [3] and in series [4] were 5.76 min, 1.41 min and 3.5 min, respectively.
